Tested on: 171881-019-R-J1-PDC multicell spheroid viability
Assay: Anticancer human tumor 171881-019-R-J1-PDC patient-derived invasive breast carcinoma cell line growth inhibition [IpAb]
Details: for IC50: curve of first compound; for viability, T/C: stronger effect = lower value
In short: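 Combinations with ipatasertib or abemaciclib were tested on tumour spheroids holding HUVEC (25%) and MSC (15%) alongside 60% malignant cells. Top concentration was at or near clinical Cmax (10 microM if undefined), descending in half-log steps.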
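Also: spheroids exposed to the agents for seven days before readout.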

## C=CC(=O)N1CCN(c2nc(=O)n(-c3c(C)ccnc3C(C)C)c3nc(-c4c(O)cccc4F)c(F)cc23)C(C)C1 (stereo not given) + CC(C)NCC(C(=O)N1CCN(c2ncnc3c2C(C)CC3O)CC1)c1ccc(Cl)cc1
Second compound 0.1 µM
  IC50: 5260 nM
Second compound 0.316 µM
  IC50: 1830 nM
Second compound 1 µM
  IC50: < 31.6 nM
Second compound 3.16 µM
  IC50: < 31.6 nM
Second compound 10 µM
  IC50: < 31.6 nM
Second compound 0.1 µM, first compound 0.0316 µM
  viability, T/C: 102%
Second compound 0.1 µM, first compound 0.1 µM
  viability, T/C: 87.7%
Second compound 0.1 µM, first compound 0.316 µM
  viability, T/C: 90%
Second compound 0.1 µM, first compound 1 µM
  viability, T/C: 95.9%
Second compound 0.1 µM, first compound 3.16 µM
  viability, T/C: 74.2%
Second compound 0.1 µM, first compound 10 µM
  viability, T/C: 19.5%
Second compound 0.316 µM, first compound 0.0316 µM
  viability, T/C: 74.1%
Second compound 0.316 µM, first compound 0.1 µM
  viability, T/C: 67%
Second compound 0.316 µM, first compound 0.316 µM
  viability, T/C: 69%
Second compound 0.316 µM, first compound 1 µM
  viability, T/C: 64.7%
Second compound 0.316 µM, first compound 3.16 µM
  viability, T/C: 36.8%
Second compound 0.316 µM, first compound 10 µM
  viability, T/C: 13.2%
Second compound 1 µM, first compound 0.0316 µM
  viability, T/C: 24.6%
Second compound 1 µM, first compound 0.1 µM
  viability, T/C: 26.6%
Second compound 1 µM, first compound 0.316 µM
  viability, T/C: 25.9%
Second compound 1 µM, first compound 1 µM
  viability, T/C: 22.1%
Second compound 1 µM, first compound 3.16 µM
  viability, T/C: 17.3%
Second compound 1 µM, first compound 10 µM
  viability, T/C: 7.56%
Second compound 3.16 µM, first compound 0.0316 µM
  viability, T/C: 10.2%
Second compound 3.16 µM, first compound 0.1 µM
  viability, T/C: 11.7%
Second compound 3.16 µM, first compound 0.316 µM
  viability, T/C: 10.2%
Second compound 3.16 µM, first compound 1 µM
  viability, T/C: 11.5%
Second compound 3.16 µM, first compound 3.16 µM
  viability, T/C: 8.09%
Second compound 3.16 µM, first compound 10 µM
  viability, T/C: 4.11%
Second compound 10 µM, first compound 0.0316 µM
  viability, T/C: 5.17%
Second compound 10 µM, first compound 0.1 µM
  viability, T/C: 5.24%
Second compound 10 µM, first compound 0.316 µM
  viability, T/C: 6.38%
Second compound 10 µM, first compound 1 µM
  viability, T/C: 5.65%
Second compound 10 µM, first compound 3.16 µM
  viability, T/C: 5.64%
Second compound 10 µM, first compound 10 µM
  viability, T/C: 3.86%

## CC(=O)c1c(C)c2cnc(Nc3ccc(N4CCNCC4)cn3)nc2n(C2CCCC2)c1=O + CC(C)NCC(C(=O)N1CCN(c2ncnc3c2C(C)CC3O)CC1)c1ccc(Cl)cc1
Second compound 0.1 µM
  IC50: > 300 nM
Second compound 0.316 µM
  IC50: > 300 nM
Second compound 1 µM
  IC50: < 0.949 nM
Second compound 3.16 µM
  IC50: < 0.949 nM
Second compound 10 µM
  IC50: < 0.949 nM
Second compound 0.1 µM, first compound 0.000949 µM
  viability, T/C: 98.8%
Second compound 0.1 µM, first compound 0.003 µM
  viability, T/C: 112%
Second compound 0.1 µM, first compound 0.00949 µM
  viability, T/C: 94%
Second compound 0.1 µM, first compound 0.03 µM
  viability, T/C: 106%
Second compound 0.1 µM, first compound 0.0949 µM
  viability, T/C: 103%
Second compound 0.1 µM, first compound 0.3 µM
  viability, T/C: 93.5%
Second compound 0.316 µM, first compound 0.000949 µM
  viability, T/C: 83.3%
Second compound 0.316 µM, first compound 0.003 µM
  viability, T/C: 84.8%
Second compound 0.316 µM, first compound 0.00949 µM
  viability, T/C: 77.4%
Second compound 0.316 µM, first compound 0.03 µM
  viability, T/C: 76.1%
Second compound 0.316 µM, first compound 0.0949 µM
  viability, T/C: 64.6%
Second compound 0.316 µM, first compound 0.3 µM
  viability, T/C: 59.6%
Second compound 1 µM, first compound 0.000949 µM
  viability, T/C: 30.8%
Second compound 1 µM, first compound 0.003 µM
  viability, T/C: 26.1%
Second compound 1 µM, first compound 0.00949 µM
  viability, T/C: 27.8%
Second compound 1 µM, first compound 0.03 µM
  viability, T/C: 25.9%
Second compound 1 µM, first compound 0.0949 µM
  viability, T/C: 26.1%
Second compound 1 µM, first compound 0.3 µM
  viability, T/C: 23.9%
Second compound 3.16 µM, first compound 0.000949 µM
  viability, T/C: 12.4%
Second compound 3.16 µM, first compound 0.003 µM
  viability, T/C: 11.8%
Second compound 3.16 µM, first compound 0.00949 µM
  viability, T/C: 12.2%
Second compound 3.16 µM, first compound 0.03 µM
  viability, T/C: 10.2%
Second compound 3.16 µM, first compound 0.0949 µM
  viability, T/C: 9.89%
Second compound 3.16 µM, first compound 0.3 µM
  viability, T/C: 9.65%
Second compound 10 µM, first compound 0.000949 µM
  viability, T/C: 6.66%
Second compound 10 µM, first compound 0.003 µM
  viability, T/C: 6.56%
Second compound 10 µM, first compound 0.00949 µM
  viability, T/C: 6.69%
Second compound 10 µM, first compound 0.03 µM
  viability, T/C: 5.87%
Second compound 10 µM, first compound 0.0949 µM
  viability, T/C: 5.79%
Second compound 10 µM, first compound 0.3 µM
  viability, T/C: 5.34%

Reference: PubChem BioAssay AID2060342 (Molecular Pharmacology Branch, DTP, NCI, 2025)
